Earlier results in patent US20060045928A1, “Composition containing herbal medicine component for promoting absorption and production method thereof” (priority 2004, published 2006).

Details: carrot fried with oil

- absorption rate improvement, compared with eating raw carrot: 5 to 10 times
Structure (SMILES): CC1=C(/C=C/C(C)=C/C=C/C(C)=C/C=C/C=C(C)/C=C/C=C(C)/C=C/C2=C(C)CCCC2(C)C)C(C)(C)CCC1 [β-carotene]
